Data taken from paper PMC6366094, “Suppression of Myeloid Cell Arginase Activity leads to Therapeutic Response in a NSCLC Mouse Model by Activating Anti-Tumor Immunity” (Journal for Immunotherapy of Cancer, 2019).

How the values were obtained:
human ARG2 (arginase 2) = target: T1, human ARG2 (arginase 2) (Homo sapiens, UniProt P78540); experiment: enzymatic arginase inhibition assay (data not shown); format: biochemical
T1 sequence (P78540 23-354): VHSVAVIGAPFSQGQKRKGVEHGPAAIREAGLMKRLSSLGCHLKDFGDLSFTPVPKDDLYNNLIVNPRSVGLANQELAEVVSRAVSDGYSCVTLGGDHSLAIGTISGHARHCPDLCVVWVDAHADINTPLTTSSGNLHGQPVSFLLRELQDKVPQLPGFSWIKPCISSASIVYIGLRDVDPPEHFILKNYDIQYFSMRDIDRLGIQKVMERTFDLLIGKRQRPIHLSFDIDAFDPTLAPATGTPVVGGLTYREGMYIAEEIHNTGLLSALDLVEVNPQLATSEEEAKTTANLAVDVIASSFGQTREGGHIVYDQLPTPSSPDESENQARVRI

human ARG1 (arginase 1) = target: T2, human ARG1 (arginase 1) (Homo sapiens, UniProt P05089); experiment: as above; format: biochemical
T2 sequence (P05089 1-322): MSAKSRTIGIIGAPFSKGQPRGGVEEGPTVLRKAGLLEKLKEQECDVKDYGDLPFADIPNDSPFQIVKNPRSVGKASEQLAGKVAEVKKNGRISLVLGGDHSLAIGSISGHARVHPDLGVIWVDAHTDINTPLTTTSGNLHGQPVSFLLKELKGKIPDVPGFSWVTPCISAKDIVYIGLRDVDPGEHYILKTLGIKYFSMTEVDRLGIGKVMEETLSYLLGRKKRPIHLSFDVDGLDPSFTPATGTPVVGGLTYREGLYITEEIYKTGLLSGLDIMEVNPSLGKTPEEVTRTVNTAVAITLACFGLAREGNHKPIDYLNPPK

N[C@](CCCCB(O)O)(CCN1CCCCC1)C(=O)O [compound 9, (R)-2-amino-6-borono-2-(2-(piperidin-1-yl)ethyl) hexanoic acid]
IC50 (human ARG2 (arginase 2)): 2700 nM | IC50 (human ARG1 (arginase 1)): 1100 nM
